# Data as given in patent US20090176888A1, “COMPOSITION COMPRISING PHYTOSPHINGOSINE OR DERIVATIVE THEREOF” (KOREA INSTITUTE OF RADIOLOGICAL & MEDICAL SCIENCES, priority 2003, published 2009).
# Legend:
# [1] = tested on: caspases in human blood cancer cells; assay: Western blotting of caspase-3, caspase-8, caspase-9 and PARP; assay type: cell-based; details: 5 and 10 μg/ml phytosphingosine, FIG. 10
# Experimental: (§1) Human lung cancer cells and blood cancer cells were cultured under the same condition as in the apoptosis test and were treated with 10 ml of phytosphingosine (10 μg/ml of phytosphingosine for lung cancer cells, and 5 μg/ml and 10 μg/ml of phytosphingosine for blood cancer cells). Then, the analysis of mitochondrial membrane potential and western blotting was carried out. Phytosphingosine-treated human lung cancer cells and blood cancer cells were dissolved in a protease inhibitor-containing lysis buffer (40 mM Tris-Cl (pH 8.0), 120 mM NaCl, 0.1% […]) and centrifuged to give a protein extract. Pure proteins were isolated from the protein extract using SDS-PAGE and transferred to a nitrocellulose membrane. The protein-bound nitrocellulose membrane was blocked with skim milk and incubated with as caspase-3, caspase-8, caspase-9, and poly(ADP-ribose)polymerase (PARP) as primary antibodies at room temperature for one hour. The primary antibodies-bound nitrocellulose membranes were three times washed with PBS-T (phosphate buffered saline, 0.1% Tween-20) and incubated with HRP (Horse Radish Peroxidase)-conjugated secondary antibodies for one hour. The expression of caspase-3, caspase-8, caspase-9, and PARP was detected using ECL reagent (PerkinElmer Life Science, Inc.).
# [2] = tested on: caspases in human lung cancer cells; assay: as above; assay type: cell-based; details: 10 μg/ml phytosphingosine, FIG. 10
# Experimental: as §1
# [3] = tested on: human blood cancer cells; assay: Apoptosis test with or without radiation; assay type: cell-based; details: 5 μg/ml in combination with radiation
# Experimental: (§2) (1) Each 5 ml of 20 μg/ml of phytosphingosine and derivatives thereof were added to human lung cancer cell-containing dishes. Some cells were cultured without radiation and others were cultured with radiation with dose of 4 Gy. This apoptosis test was carried out in the same manner in the Experiment 1. Specimens used in this apoptosis test are as follows:
# (§3) Control (Cont), IR, PS, PS+IR, C4PS, C4PS+IR, C6PS, C6PS+IR, C8PS, C8PS+IR, C12PS, C12PS+IR.
# (§4) (2) Apoptosis tests for human blood cancer cells, uterine cervical cancer cells, and breast cancer cells were carried out in the same manner as in the above (1) except using 5 μg/ml of phytosphingosine and derivatives thereof.
# [4] = tested on: human uterine cervical cancer cells; assay: Apoptosis test with or without radiation; assay type: cell-based; details: 5 μg/ml in combination with radiation, FIG. 17
# Experimental: as §2, §3, §4
# [5] = tested on: human breast cancer cells; assay: Apoptosis test with or without radiation; assay type: cell-based; details: 5 μg/ml in combination with radiation, FIG. 17
# Experimental: as §2, §3, §4
# [6] = tested on: human lung cancer cells; assay: Analysis of mitochondrial membrane potential (DioC6(3), flow cytometry) and cytochrome c release; assay type: cell-based; details: 10 μg/ml phytosphingosine
# Experimental: Human lung cancer cells and blood cancer cells were cultured under the same condition as in the apoptosis test and were treated with 10 ml of phytosphingosine (10 μg/ml of phytosphingosine for lung cancer cells, and 5 μg/ml and 10 μg/ml of phytosphingosine for blood cancer cells). Then, the analysis of mitochondrial membrane potential and western blotting was carried out. Mitochondria were stained with 30 nM of a specific DioC6(3) dye (Calbiochem) for 30 minutes and culture media were removed. Then, lung cancer cells were twice washed with PBS and the membrane potential was analyzed by flow cytometry.
# [7] = tested on: human uterine cervical cancer cells (NCI-H460 cells); assay: In vivo animal test, tumor volume in transplanted nude mice (phytosphingosine alone); details: FIG. 11
# Experimental: Nude mice (body weight: about 20 g) were randomized into 2 groups: a first group is for a control group and a second group is for treatment with phytosphingosine. The femoral region of the nude mice was transplanted with human uterine cervical cancer cells ([…]). Then, tumor volume was allowed to reach a level of […]. A 50 mg/kg solution of phytosphingosine in an olive oil was orally administered to the second group for one week on a daily basis.
# [8] = tested on: human breast cancer cells (MDA-MB-231); assay: Apoptosis test (Sub G1, propidium iodide, flow cytometry); assay type: cell-based
# Experimental: Cancer cells as used in the experiment were human lung cancer cells (NCI-H460, Korean Cell Line Bank), human breast cancer cells (MDA-MB-231, American Type Culture Collection (ATCC)), human uterine cervical cancer cells (HeLa, Korean Cell Line Bank), and blood cancer cells (Jurkat, ATCC). These cancer cells were cultured in RPMI 1640 media containing 10% FBS, penicillin, and streptomycin (GIBCO BRL). The apoptosis tests were carried out at human lung cancer cells, breast cancer cells, uterine cervical cancer cells, and blood cancer cells as follows: Phytosphingosine or a derivative thereof was dissolved in DMSO. Samples of the resultant solution of different concentration levels (1, 2, 5, 10, 15, 20 μg/ml) were prepared. According to the following treatment schedule, phytosphingosine treated cancer cells were cultured, washed with PBS (phosphate buffered saline), and fixed with 70% ethanol. The fixed cells were again washed with PBS, suspended in PBS, and 1 mg/ml of RNase was added thereto. Then, DNA was stained with 50 μg/ml of propidium iodide fluorescent dye and the change in the Sub G1 was analyzed by flow cytometry (Becton DICKINSON). The Sub G1, a marker of apoptotic cell death, means DNA distribution lower than that in the G1 phase of cell cycle. (1-1) In order to determine an anticancer effect of phytosphingosine, 5 ml of 10 μg/ml of phytosphingosine was added to respective dishes containing lung cancer cells, breast cancer cells, uterine cervical cancer cells, and blood cancer cells. (1-2) In order to examine a correlation of an anticancer effect with the phytosphingosine concentration and post-treatment culture time, each 5 ml of 2, 5, 10, and 15 μg/ml of phytosphingosine was added to respective human uterine cervical cancer cell-containing dishes and human breast cancer cell-containing dishes. In addition, each 5 ml of 5, 10, 15, and 20 μg/ml of phytosphingosine was added to respective human lung cancer cell-containing dishes, and each 5 ml of 1, 5, 10, and 20 μg/ml of phytosphingosine was added to respective human blood cancer cell-containing dishes.
compound,measurement,setting,value
CCCCCCCCCCCCCC[C@@H](O)[C@@H](O)[C@@H](N)CO [phytosphingosine],activities of the caspases,[1],considerably increased
same,activities of the caspases,[2],considerably increased
same,"increase of apoptotic rate, concurrent treatment vs PS or radiation alone",[3]; FIG. 15,≥ 20%
same,"increase of apoptotic rate, concurrent treatment vs PS or radiation alone","[3]; after 18 hours, FIG. 16",≥ 15%
same,enhancement of radiosensitizing effect,[4],excellent
same,enhancement of radiosensitizing effect,[5],excellent
same,release of cytochrome c from mitochondria,"[6]; FIGS. 7, 9",increased
same,mitochondrial membrane potential,[6]; FIGS. 7-8,decreased
same,inhibitory effect on tumor growth compared to control group,"[7]; 50 mg/kg/day oral for one week, at the 40th day",potent inhibitory effect on tumor growth
same,tumor size change,"[7]; 50 mg/kg/day oral in olive oil for one week, versus control group",did not show changes for 20 days
same,apoptosis,"[8]; 10 μg/ml or more, culture of 12 hours or more, FIG. 4",≥ 50%
same,anticancer effect compared to untreated cancer cells,"[8]; 10 μg/ml phytosphingosine, test (1-1), FIG. 1",excellent anticancer effects
same,apoptosis,"[8]; 10 μg/ml, at 12 hours after treatment",50%
